Source: US8343475B2, “Small cationic antimicrobial peptides” (priority 2006, dated 2013)
No end group written: not given here.

Legend:
Type in all cases: cell-based
[1] = test system: Pseudomonas aeruginosa strain H1001 fliC::luxCDABE; assay: Luminescence (lux) killing assay, peptides cleaved from cellulose support; design: key: − for minimal or no activity; + for weak activity; +/++ for intermediate activity; ++ strong activity; details: P. aeruginosa strain H1001, 4 hours incubation, luminescence as indicator
Method: Assay for the cleaved peptides from cellulose support. The peptides were cleaved from the dried membrane in an ammonia atmosphere overnight, resulting in free peptides with an amidated C-terminus. The free peptides contained two β-alanines at the C-terminus, in addition to being amidated due to the linker between the cellulose membrane and the peptide sequence. The peptide spots were punched out and transferred in a 96-well microtiter plate. Serial dilutions were carried out from the membrane spots. Four rows were filled with four controls including 2×Bac2A and 2× an unrelated peptide. The other eight rows were used for serial dilution steps of the peptide variants. An overnight culture of Pseudomonas aeruginosa strain H1001 was diluted 1:500 using either LB media or 100 mM Tris buffer pH 7.3, 20 mM glucose and was added to the wells (100 μl/well) containing the peptide spots. In all other wells 50 μl were added. The microtiter plate was incubated for 30 min at 37° C. to release the peptides from the membrane. Subsequently, a dilution series were performed and the plate was incubated at 37° C. The luminescence produced by the FMN dependent luciferase system were detected in a time dependent manner using a Tecan Spectra Fluor plus.
Strains. For the killing assay a mini-Tn5-lux mutant in Pseudomonas aeruginosa H103 was used. The strain is called H1001 and contains a fliC::luxCDABE transcriptional fusion resulting in constitutive expression of luciferase. The bacterial strains used for the antimicrobial activity assays included Escherichia coli UB1005 (F-, nalA37, metB1), a wild-type Salmonella enterica ssp. typhimurium (S. typhimurium), wild-type Pseudomonas aeruginosa PAO1 strain H103, Enterococcus faecalis ATCC29212, Staphylococcus aureus ATCC25923, and a clinical isolate of Staphylococcus epidermidis obtained from Dr. D. Speert (Department of Medicine, University of British Columbia). Antifungal activity was tested using a lab isolate of Candida albicans obtained from Dr. B. Dill (Department of Microbiology and Immunology, University of British Columbia).
Peptide synthesis on cellulose is a very effective and inexpensive way to investigate many different peptide variants for one particular activity. However, one of the problems of this technique is the low peptide amount synthesized on the membrane, about 280 nmol per cm^2. An average peptide spot used for the experiments presented is about 0.3 cm^2. Therefore, an assay had to be developed that was sensitive enough to show activity with this amount of peptides. P. aeruginosa H1001 has a luciferase gene cassette incorporated into the bacterial chromosome in a gene fliC (involved in flagellar biosynthesis) that is constitutively expressed. It will thus produce light if FMN is present. When this strain is killed, e.g. by peptides, the amount of light produced will decrease due to a decrease in FMN levels in the killed cells. This action can thus be monitored by detecting luminescence in a microtiter plate luminescence reader over time. The volume and amount of cells per well were optimized for this assay. After screening, we were able to monitor the killing action with small amounts of the parent peptide Bac2A (2 μg/ml of free peptide).

[2] = test system: MCP-1 release by human PBMC; assay: Chemokine induction in PBMC (capture ELISA); details: background (204) subtracted
Method: FIG. 15. Induction of MCP-1 release by 7.5×10^5 human PBMC in response to treatment with 20 or 100 μg/ml of different peptides for 24 hours.
(§1) Venous blood (20 ml) from healthy volunteers was collected in Vacutainer® collection tubes containing sodium heparin as an anticoagulant (Becton Dickinson, Mississauga, ON) in accordance with UBC ethical approval and guidelines. Blood was diluted 1:1 with complete RPMI 1640 medium and separated by centrifugation over a Ficoll-Paque® Plus (Amersham Biosciences, Piscataway, N.J., USA) density gradient. White blood cells were isolated from the buffy coat, washed twice in RPMI 1640 complete medium, and the number of peripheral blood mononuclear cells (PBMC) was determined by trypan blue exclusion. PBMC (5×10^5) were seeded into 12-well tissue culture dishes (Falcon; Becton Dickinson) at 0.75 to 1×10^6 cells/ml at 37° C. in 5% CO2. The above conditions were chosen to mimic conditions for circulating blood monocytes entering tissues at the site of infection via extravasation.
(§2) Following incubation of the cells under various treatment regimens, the tissue culture supernatants were centrifuged at 1000×g for 5 min, then at 10,000×g for 2 min to obtain cell-free samples. Supernatants were aliquoted and then stored at −20° C. prior to assay for various chemokines by capture ELISA (eBioscience and BioSource International Inc., CA, USA respectively)

[3] = test system: MCP-3 release by human PBMC; assay: Chemokine induction in PBMC (capture ELISA); details: background (6) subtracted
Method: FIG. 16. Induction of MCP3 release by 7.5×10^5 human PBMC in response to treatment with 20 or 100 μg/ml of different peptides for 24 hours.
as §1, §2

[4] = test system: CXCL1 (Gro-α) release by human PBMC; assay: Chemokine induction in PBMC (capture ELISA); details: background (196) subtracted
Method: FIG. 17. Induction of CXCL1 (Gro-α) release by 7.5×10^5 human PBMC in response to treatment with 20 or 100 μg/ml of different peptides for 24 hours.
as §1, §2

Row | Substance | Antimicrobial activity [1] | Chemokine induction MCP-1 ([2]; 20 μg/ml peptide) | Chemokine induction MCP-1 ([2]; 100 μg/ml peptide) | Chemokine induction MCP-3 ([3]; 20 μg/ml peptide) | Chemokine induction MCP-3 ([3]; 100 μg/ml peptide) | Chemokine induction Gro-α ([4]; 20 μg/ml peptide) | Chemokine induction Gro-α ([4]; 100 μg/ml peptide)
1 | KFHWWKWRK [HH989] | ++ |  |  |  |  |  | 
2 | KFKFFKFRK [HH992] | + |  |  |  |  |  | 
3 | KFKFFKYRK [HH991] | + |  |  |  |  |  | 
4 | KFKWWKYRK [HH990] | ++ |  |  |  |  |  | 
5 | KFPWWPWRR [HH976] | + |  |  |  |  |  | 
6 | KFRWWKWRR [HH985] | ++ |  |  |  |  |  | 
7 | KFRWWPWRR [HH984] | ++ |  |  |  |  |  | 
8 | LVRAIQVRAVIR (LVRAIQVRAVIR-NH2) [compound 1001] |  | 516 pg/mL | 2491 pg/mL | 0 pg/mL | 40 pg/mL | 88 pg/mL | 850 pg/mL
9 | VIWIRWR (VIWIRWR-NH2) [compound 1041] |  | 146 pg/mL | 1218 pg/mL | 7 pg/mL | 53 pg/mL | 110 pg/mL | 450 pg/mL
10 | VQLRIWVRR (VQLRIWVRR-NH2) [compound 1006] |  | 392 pg/mL | 3004 pg/mL | 0 pg/mL | 58 pg/mL | 65 pg/mL | 1245 pg/mL
11 | WIVIWRR (WIVIWRR-NH2) [compound 1043] |  | 98 pg/mL | 1998 pg/mL | 0 pg/mL | 21 pg/mL | 26 pg/mL | 881 pg/mL
12 | WRWRVRVWR (WRWRVRVWR-NH2) [compound 1031] |  | 875 pg/mL | 552 pg/mL | 9 pg/mL | 9 pg/mL | 172 pg/mL | 112 pg/mL
